Structures are written as SMILES.

A short description of data set [1]: Righting reflex experiment on mice. Particulars: both, ICR, mouse, in vivo; for MTD: intravenous; for LD50: iv. The method, then: (§1) LD5 (5% lethal dose): dose required to cause 5% of mice to die in a test.
(§2) If a normal animal was able to immediately turn its body to normal upright position after being pushed over or made lying on its back, such a reflex was determined as the righting reflex. Otherwise, loss of the righting reflex and the time of loss were recorded, and a reflex recovery time was recorded when the animal restored the righting reflex. The period from finishing of drug administration until loss of the righting reflex was recorded as the anesthesia induction time, and the period from loss of the righting reflex until recovery of the righting reflex was recorded as the anesthesia maintenance time.
(§3) TI (therapeutic index, i.e. LD50/ED50), SI (safety index, i.e. LD5/ED95).
(§4) MTD (maximum tolerated dose): the maximum dose able to cause 100% to loss the righting index without death.
(§5) Indicators such as median effective dose (ED50), median lethal dose (LD50), therapeutic index (TI, i.e. LD50/ED50), safety index (SI, i.e. LD5/ED95), anesthesia induction time, anesthesia maintenance time, and maximum tolerated dose (MTD) were used to evaluate the effect and safety of anesthesia. […] After adapting to the laboratory environment, laboratory animals were fasted for 12 hours. On the next day, administration was carried out at 10 mg/kg body weight. Upon intravenous injection, the time of loss of the righting reflex was recorded. The period from finishing of drug administration until loss of the righting reflex was recorded as the anesthesia induction time, and the period from loss of the righting reflex until recovery of the righting reflex was recorded as the anesthesia maintenance time. The anesthesia induction time and the anesthesia maintenance time were used to indicate how strong an anesthetic effect was. Meanwhile, the dose required to cause a 7-min anesthesia (HD7) was measured and used to evaluate relative efficacy.

The test system of data set [2] is ICR mice. The data set can be described thus: Righting reflex experiment on mice. Particulars: for ED50: Mus musculus, iv; for Anesthesia induction time / Anesthesia maintenance time / HD7 / MTD: mice; for Anesthesia induction time / Anesthesia maintenance time: intravenous injection; for Anesthesia induction time: end of administration until loss of righting reflex; for Anesthesia maintenance time: loss until recovery of righting reflex; for HD7: dose required to cause a 7-min anesthesia; for SI: safety index, LD5/ED95, mice; for TI: therapeutic index, LD50/ED50, mice; for MTD: maximum dose causing 100% loss of righting reflex without death. The method, then: as §1, §2, §3, §4, §5

Data set [3] can be described thus: Pharmacokinetic experiment on rats. The conditions noted are these: male, Sprague-Dawley, rat, plasma; Intravenous Injection into Rats (1 mg/kg). The format is in vivo, SD rats. The method, then: 3 male SD rats, each weighing 180 to 240 g, were fasted overnight with water access. A 1 mL/kg solution of the compound was formulated with 10% DMA, 20% solutol HS-15 (30%, w/v) and 70% physiological saline. Blood was sampled before administration and 2 min, 4 min, 8 min, 12 min, 15 min, 30 min, 1 h, 1.5 h and 2 h after administration. Blood samples were centrifuged at 5500 rpm for 10 min, and plasma was collected and stored at −40° C. 10 μl rat plasma from each time point was added to a 200 μl acetonitrile solution containing an internal standard and mixed, followed by 1-min vortexing and 18-min centrifugation at 3700 rpm. Then 70 μl supernatant was mixed with 70 μl water, and 10 μl of the mixture was analyzed by LC-MS/MS. Major pharmacokinetic parameters were subjected to a non-compartment analysis with the software WinNonlin 6.3.

What is called LD50 is the dose at which mortality reaches 50%. As usually defined, the ED50 is the midpoint of the dose-response relation. `CC(C)c1cccc(C(C)C2CC2)c1O` (centres unmarked) [Compound 3, 2-(1-cyclopropylethyl)-6-isopropylphenol]: in data set [1], the MTD amounted to 10 mg/kg and the LD50 was determined as 22.7 mg/kg. Further, in data set [2], the ED50 stood at 3.7 mg/kg, the Anesthesia induction time is on record as <15.0 s, the Anesthesia maintenance time is reported as 660.4 s and the HD7 amounted to 6.0 mg/kg. In data set [2], this compound yielded an SI of 1.7 and a TI of 6.1.

For the compound `CCC(C)c1cccc(C(C)C2CC2)c1O` (centres unmarked) [Compound 4, 2-sec-butyl-6-(1-cyclopropylethyl)phenol], in data set [1], the MTD came out at 25 mg/kg and the LD50 worked out at 38.1 mg/kg. In addition, in data set [2], the 50% effective dose (ED50) stood at 4.5 mg/kg, the Anesthesia induction time is reported as <15.0 s, the Anesthesia maintenance time stood at 901.7 s and the HD7 turned out to be 4.0 mg/kg. Besides, in data set [2], the SI is recorded as 2.6 and the TI amounted to 8.4.

Regarding `CC(c1cccc(C2CC2)c1O)C1CC1` (centres unmarked) [Compound 5, 2-cyclopropyl-6-(1-cyclopropylethyl)phenol], in data set [1], the MTD came out at 60 mg/kg and the LD50 is 80 mg/kg. In addition, in data set [2], the ED50 worked out at 14.5 mg/kg, the Anesthesia induction time was <15.0 s, the Anesthesia maintenance time was found to be 1669.5 s and the SI is 4.0. The compound also displayed a TI in data set [2] of 5.5.

In data set [1], `CC(c1cccc(C2(C)CC2)c1O)C1CC1` (centres unmarked) [Compound 6, 2-(1-cyclopropylethyl)-6-(1-methylcyclopropyl)phenol] returned an MTD of 30 mg/kg and an LD50 of 40 mg/kg. In addition, in data set [2], it took a dose of 10.5 mg/kg to reach the 50% effect level (ED50), the Anesthesia induction time was <15.0 s, the Anesthesia maintenance time is listed as 554.9 s and the SI is 2.7. In addition, the TI in data set [2] is recorded as 3.8.

Take `CC(C)c1cccc(C(C)C2CCC2)c1O` (centres unmarked) [Compound 7, 2-(1-cyclobutylethyl)-6-isopropylphenol]: the LD50 in data set [1] amounted to 40 mg/kg. Besides, in data set [2], the ED50 was 7.1 mg/kg, the Anesthesia induction time is reported as <15.0 s, the Anesthesia maintenance time came out at 958.0 s and the MTD amounted to 30.0 mg/kg. For the same compound, in data set [2], the SI worked out at 2.7 and the TI is on record as 5.7.

The AUC(0-t) is exposure summed from dosing to a finite time, without extrapolation to infinity. Read a high AUC(0-t) as high exposure. As a reminder, the clearance is the rate of elimination divided by the concentration. High values mean efficient removal, low ones inefficient removal. In general, half-life refers to the time needed for the level to fall by half in the phase considered. Read a high half-life as slow decline. For `COc1cccc(C(C)C2CC2)c1O` (centres unmarked) [Compound 8, 2-(1-cyclopropylethyl)-6-methoxy-phenol], in data set [1], the MTD worked out at 40 mg/kg and the LD50 was determined as 67 mg/kg. Moreover, in data set [2], the 50% effective dose (ED50) worked out at 7.3 mg/kg, the Anesthesia induction time is on record as <15.0 s, the Anesthesia maintenance time was determined as 394.8 s and the SI was 7.0. In data set [2], this compound registered a TI of 9.1. In data set [3], this compound had an AUC(0-t) of 132 ng·h/mL, a clearance of 119 mL/min/kg and a half-life of 48 min.

In data set [1], `CC(C)c1cccc(C(C2CC2)C2CC2)c1O` [Compound 11, 2-(dicyclopropylmethyl)-6-isopropyl-phenol] showed an MTD of 80 mg/kg and a median lethal dose (LD50) of 100 mg/kg. In addition, in data set [2], the ED50 is 30.1 mg/kg, the Anesthesia induction time is listed as <15.0 s, the Anesthesia maintenance time is given as 1494.7 s and the SI worked out at 2.5. The compound also showed a TI in data set [2] of 3.3.

Compound `CC(c1cccc(C(C)C2CC2)c1O)C1CC1` (centres unmarked) [Compound 13, 2,6-bis(1-cyclopropylethyl)phenol] gave a 50% lethal dose (LD50) in data set [1] of 20 mg/kg. In data set [2], the ED50 was found to be 3.6 mg/kg, the Anesthesia induction time is reported as <15.0 s, the Anesthesia maintenance time turned out to be 554.4 s and the HD7 is reported as 7.0 mg/kg. Also, in data set [2], the MTD is recorded as 10.0 mg/kg, the SI stood at 3.0 and the TI is reported as 5.5. Besides, in data set [3], the AUC(0-t) was determined as 187 ng·h/mL, the clearance amounted to 87.5 mL/min/kg and the half-life is 12 min.

`CC(C)c1cccc([C@H](C)C2CCC2)c1O` [Compound 14, 2-[(1R)-1-cyclobutylethyl]-6-isopropyl-phenol] had an LD50 in data set [1] of 38.2 mg/kg. Besides, in data set [2], the ED50 was determined as 6.6 mg/kg, the Anesthesia induction time is on record as <15.0 s, the Anesthesia maintenance time was determined as 2235.6 s and the MTD came out at 35.0 mg/kg. In data set [2], this compound yielded an SI of 3.7 and a TI of 5.8.

Turning to `CC(C)c1cccc([C@@H](C)C2CCC2)c1O` [Compound 15, 2-[(1S)-1-cyclobutylethyl]-6-isopropyl-phenol], in data set [1], the LD50 is 107 mg/kg. Also, in data set [2], the ED50 stood at 46.1 mg/kg, the Anesthesia induction time is <15.0 s, the Anesthesia maintenance time was found to be 485.8 s and the MTD came out at 70.0 mg/kg. In data set [2], this compound displayed an SI of 1.1 and a TI of 2.3.

In data set [1], `C[C@@H](c1cccc([C@H](C)C2CC2)c1O)C1CC1` [Compound 18, 2,6-bis[(1R)-1-cyclopropylethyl]phenol] displayed an MTD of 20 mg/kg and an LD50 of 43.6 mg/kg. Further, in data set [2], the ED50 is 5.8 mg/kg, the Anesthesia induction time is recorded as <15.0 s, the Anesthesia maintenance time came out at 1031.6 s and the HD7 came to 2.5 mg/kg. Besides, in data set [2], the SI was found to be 3.5 and the TI is recorded as 7.5.

`C[C@H](c1cccc([C@H](C)C2CC2)c1O)C1CC1` [Compound 19, 2-[(1S)-1-cyclopropylethyl]-6-[(1R)-1-cyclopropylethyl]phenol]: in data set [1], the MTD was found to be 5 mg/kg and the LD50 is 6.3 mg/kg. Moreover, in data set [2], the ED50 was 1.5 mg/kg, the Anesthesia induction time is <15.0 s, the Anesthesia maintenance time stood at 754.4 s and the SI is given as 3.8. In data set [2], this compound displayed a TI of 4.1.

In data set [1], `C[C@H](c1cccc([C@@H](C)C2CC2)c1O)C1CC1` [Compound 20, 2,6-bis[(1S)-1-cyclopropylethyl]phenol] showed an LD50 of 150 mg/kg. Moreover, in data set [2], the ED50 was 15.7 mg/kg, the Anesthesia induction time is recorded as <15.0 s, the Anesthesia maintenance time was 1207.7 s and the MTD came to 90.0 mg/kg. In addition, in data set [2], the SI came to 4.4 and the TI turned out to be 9.6.

Turning to `CC[C@H](C)c1cccc([C@H](C)C2CC2)c1O` [Compound 25, 2-[(1R)-1-cyclopropylethyl]-6-[(1S)-1-methylpropyl]phenol], in data set [1], the MTD stood at 10 mg/kg and the LD50 turned out to be 14.3 mg/kg. Also, in data set [2], the 50% effect level (ED50) was put at a dose of 2 mg/kg, the Anesthesia induction time is <15.0 s, the Anesthesia maintenance time stood at 1048.0 s and the HD7 worked out at 4.0 mg/kg. Further, in data set [2], the SI was found to be 4.6 and the TI came out at 7.1. In data set [3], this compound gave an AUC(0-t) of 78.1 ng·h/mL, a clearance of 208 mL/min/kg and a half-life of 24 min.

`CC[C@@H](C)c1cccc([C@H](C)C2CC2)c1O` [Compound 26, 2-[(1R)-1-cyclopropylethyl]-6-[(1R)-1-methylpropyl]phenol]: in data set [1], the MTD is 4 mg/kg and the LD50 came out at 8.3 mg/kg. In data set [2], the 50% effective dose (ED50) is 1.3 mg/kg, the Anesthesia induction time was <15.0 s, the Anesthesia maintenance time came to 690.0 s and the HD7 was 2.5 mg/kg. In data set [2], this compound yielded an SI of 2.4 and a TI of 6.4. In data set [3], this compound had an AUC(0-t) of 124 ng·h/mL, a clearance of 134 mL/min/kg and a half-life of 30 min.

In data set [1], `CC[C@H](C)c1cccc([C@@H](C)C2CC2)c1O` [Compound 28, 2-[(1S)-1-cyclopropylethyl]-6-[(1S)-1-methylpropyl]phenol] returned an MTD of 15 mg/kg and an LD50 of 36.8 mg/kg. Further, in data set [2], the ED50 worked out at 5.3 mg/kg, the Anesthesia induction time was <15.0 s, the Anesthesia maintenance time is given as 885.9 s and the HD7 is reported as 8.0 mg/kg. Also, in data set [2], the SI came out at 3.0 and the TI came out at 6.9. In data set [3], this compound showed an AUC(0-t) of 143 ng·h/mL, a clearance of 115 mL/min/kg and a half-life of 18 min.

The record behind these values is patent publication US9517988B2 (Sichuan Haisco Pharmaceutical Co., Ltd., priority 2013, dated 2016).
